We go through 1 compound from article PMC11040934, “PI3Kγδ inhibition suppresses key disease features in a rat model of asthma” (Respiratory Research, 2024).

Broadly, the IC50 is the concentration at which inhibition is half-maximal.

Like-named read-outs stand apart in the source and are kept apart here.

In series [1] the test system is Brown Norway rats, OVA sensitised and challenged. Nature of the series: Rat model of allergic asthma: BAL cellular inflammation. In kind it is in vivo, Brown Norway rat. Particulars: BAL 24 hrs after OVA challenge; i.t. dosing. As for the experimental part: (§1) Male, adult, Brown Norway rats were obtained from Charles River Germany at a body weight range of 250-300 g. Animals were housed in temperature controlled individually ventilated cages in groups of 4 with food and water provided ad libitum. Animals underwent acclimatisation for at least 1 week prior to experimentation. Experiments were performed in accordance with the UK Home Office guidelines for animal welfare based on the Animals (Scientific Procedures) Act of 1986 and the ARRIVE guidelines (Fig. E2).
(§2) Initially a time course study was performed, followed by a characterisation study with compound & clinical comparator. For both studies, rats were sensitised on day 0, 14 and 21 by an intraperitoneal (i.p.) injection of 4 mL/kg (1 mL/rat) of ovalbumin (OVA;100 μg/rat) in Imject™ Alum (20 mg/rat aluminium hydroxide and 20 mg/rat magnesium hydroxide) or sham sensitised (Saline [Sal] in Imject™ Alum). On day 28 rats were challenged with 1% (w/v) aerosolised OVA in isotonic saline, or sham challenged with isotonic saline (30 mins).
Following blood collection, rats underwent tracheostomy and were cannulated. Rats were lavaged and bronchoalveolar lavage (BAL) fluid was collected (2 × 3 mL RPMI, 30 secs, 70% vol. retained). Slides were prepared using 100 μL of neat BAL, centrifuged (700 rpm, 5 mins, RT, low acceleration; Cytospin 2, Shandon, Runcorn, UK). 800 μL of neat BAL was collected and centrifuged (800×g, 10 mins, 4 °C). Supernatant was collected and stored (− 80 °C), and cell pellet was resuspended (200 μL, RPMI), total leukocytes were attained using a Sysmex XP-300 automated cell counter (Sysmex Ltd., Milton Keynes, UK). Remaining BAL was centrifuged (800×g, 10 mins, 4 °C) and supernatant collected and stored (− 80 °C).
BAL cytospin slides were placed in an automated stainer (Hematek 2000, Ames. Co., USA) and stained with a Modified-Wright stain (Siemens, Germany). Differential cell counts using a light microscope were performed based on morphological criteria were performed to determine percentages of macrophages/monocytes, lymphocytes, neutrophils & eosinophils. Total numbers of each distinct cell type were determined based on total leukocyte numbers.

Series [2] has as its system JAK/STAT and NF-κB pathways. Description: Rat model of allergic asthma: lung pSTAT3, pSTAT5a,b and NF-κB p65, pathway specificity. The format is in vivo, Brown Norway rat. Particulars: i.t. 1 hr before OVA challenge; lung 2 hrs after challenge.
Procedure: Initially a time course study was performed, followed by a characterisation study with compound & clinical comparator. […]
10 μg of protein from lung tissue extract were utilized in pAkt (T308); pSTAT3, pSTAT4 & STAT5a, b (Phospho-STAT Panel kit) MSD Assay plates (Meso Scale Delivery, USA) and run according to manufacturers’ instructions. Arbitrary electrochemiluminescence signals were read, the blank subtracted and values determined in each plate using a MSD S-Plex plate reader (Meso Scale Delivery, USA). […]
10 μg (5 μL) of nuclear tissue extract were utilized in NF-κB p65 TransAm Activation Assays (Active Motif, USA) and run according to manufacturer’s instructions. Optical density was determined utilizing a spectrophotometer, the blank was subtracted, and values determined (450 nm; Spectromax, UK).
Series [3] can be described thus: Lung tissue and plasma levels after intratracheal dosing (LC-MS/MS). In kind it is in vivo. As for the experimental part: as §2
For the time course study, animals were terminally anaesthetized, via overdose i.p. with sodium pentobarbitone (200 mg/kg), 1–24 hrs post antigen challenge. For the compound study, animals were terminally anaesthetised, via overdose i.p. with sodium pentobarbitone (200 mg/kg), 2 or 24 hrs post antigen challenge. […]
50 μL plasma was protein precipitated by addition of 180 μL acetonitrile containing 0.2% formic acid & 50 nM internal standard. […] Plasma concentrations of AZD8154 were determined by liquid chromatography with tandem mass spectrometric detection (LC-MS/MS).
Lung pieces were weighed and homogenised in a 1 mL ringer solution using bead-beating technology (Bertin Technologies, Montigny le Bretonneux, France). […] Lung concentrations of AZD8154 were determined by LC-MS/MS. […]

The target of the next series is rat PI3Kγ (Rattus norvegicus, UniProt D3ZFJ0). Description: PI3K γ assay: CXCL1/CINC-1-stimulated CD11b expression on rat whole blood neutrophils (FACS). In kind it is cell-based. Particulars: mean ± SEM, n = 3. As for the experimental part:
PI3K γ assay: whole blood from male Sprague Dawley rat was collected in heparin coated tubes and pre-treated (1 hr., 37 °C, 5% CO2) with vehicle DMSO or PI3K inhibitors followed by stimulation with Rat CXCL1/CINC-1 (515-CN-050, R&D) at 500 ng/mL (EC80 determined in house; 1 hr., RT). Next, cells were stained with Fc block (550,273, BD bioscience, 1:100; 20 mins, RT), CD45R-B220-PeCy7 (HIS24) (25–0460-82, eBioscience, 1:100), CD43-PE (W3/13) (202,812, Biolegend, 1:100), HIS48-FITC (11–0570-82, eBioscience, 1:100), CD11b-APC (562,102, BD Bioscience, 1:100). Cells were lysed and fixed with BD FACS lysing solution (349,202, BD Biosciences; 45 mins, RT) before FACS acquisition (BD LSRFortessa™). Data were analysed using FlowJo 9.9 software (TreeStar). FACS gating strategy: lymphocytes (FSC-A vs SSC-A), doublets exclusion (FSC-W vs FSC-H), neutrophil identification B220-, HIS48hi, CD43hi, SSC-Ahi, geom. MFI for CD11b on neutrophils. IC50 values were determined in Graph Pad through a nonlinear fit on log transform data: log inhibitor vs response, variable slope, 4 parameters. Fraction unbound in diluted whole blood is calculated using the following equation: fu^′=DF·fub/1+DF-1·fub where fu’ is the fraction unbound in diluted whole blood; fub is the fraction unbound in undiluted whole blood; DF is the dilution factor. Fraction unbound in 100% whole blood (fub) is calculated as fup/BP, where fup is the experimentally determined fraction unbound in undiluted plasma and BP is the experimentally determined blood to plasma partition ratio of drug Table 1.

Series [4] deals with Brown Norway rats, OVA sensitised and challenged. Nature of the series: Rat model of allergic asthma: late asthmatic response (Penh, whole body plethysmography). The format is in vivo, Brown Norway rat. Particulars: 1-6 hrs after OVA challenge; i.t. dosing. The method, then:
as §1
Initially a time course study was performed, followed by a characterisation study with compound & clinical comparator. For both studies, rats were sensitised on day 0, 14 and 21 by an intraperitoneal (i.p.) injection of 4 mL/kg (1 mL/rat) of ovalbumin (OVA;100 μg/rat) in Imject™ Alum (20 mg/rat aluminium hydroxide and 20 mg/rat magnesium hydroxide) or sham sensitised (Saline [Sal] in Imject™ Alum). […]
In both studies, 30 mins post-challenge, rats were placed unrestrained in Perspex plethysmographs connected to bias flow pumps (DSI Europe Ltd), with food and water ad libitum. 55 mins post-challenge, a five mins baseline recording was taken and the average penh and area under the curve (AUC) was recorded at 10 mins intervals for a total duration of 5 hrs and was used for analysis (DSI Europe Ltd).

rat PI3Kγ, sequence (D3ZFJ0 1-1102): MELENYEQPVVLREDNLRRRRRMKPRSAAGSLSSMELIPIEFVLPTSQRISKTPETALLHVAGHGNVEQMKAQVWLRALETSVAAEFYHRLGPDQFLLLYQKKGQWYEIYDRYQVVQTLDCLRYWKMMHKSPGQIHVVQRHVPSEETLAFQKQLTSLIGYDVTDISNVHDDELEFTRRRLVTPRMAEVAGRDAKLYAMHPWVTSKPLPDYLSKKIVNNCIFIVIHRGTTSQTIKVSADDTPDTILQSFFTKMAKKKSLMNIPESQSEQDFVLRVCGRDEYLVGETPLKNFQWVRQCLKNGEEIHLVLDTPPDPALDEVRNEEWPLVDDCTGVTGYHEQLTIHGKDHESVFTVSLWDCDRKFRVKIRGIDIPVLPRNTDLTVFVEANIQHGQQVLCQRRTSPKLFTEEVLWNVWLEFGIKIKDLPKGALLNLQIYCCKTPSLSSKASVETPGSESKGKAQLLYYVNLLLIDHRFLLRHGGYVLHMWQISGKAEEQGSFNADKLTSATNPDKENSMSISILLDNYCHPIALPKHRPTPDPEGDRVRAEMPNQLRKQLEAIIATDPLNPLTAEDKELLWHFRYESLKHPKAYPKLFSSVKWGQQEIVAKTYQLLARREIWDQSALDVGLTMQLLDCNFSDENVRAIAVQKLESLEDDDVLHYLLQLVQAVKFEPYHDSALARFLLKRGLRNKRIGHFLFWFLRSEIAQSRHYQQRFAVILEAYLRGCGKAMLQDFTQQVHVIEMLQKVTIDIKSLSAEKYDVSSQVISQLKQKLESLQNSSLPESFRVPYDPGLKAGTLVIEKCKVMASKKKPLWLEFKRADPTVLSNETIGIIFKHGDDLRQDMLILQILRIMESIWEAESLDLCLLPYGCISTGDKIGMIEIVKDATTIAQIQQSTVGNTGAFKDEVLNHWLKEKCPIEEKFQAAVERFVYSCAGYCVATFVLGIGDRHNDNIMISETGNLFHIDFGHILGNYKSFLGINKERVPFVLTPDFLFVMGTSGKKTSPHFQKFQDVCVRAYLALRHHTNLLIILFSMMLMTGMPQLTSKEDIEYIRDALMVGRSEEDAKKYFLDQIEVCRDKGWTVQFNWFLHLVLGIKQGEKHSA

Take `Cc1nc(Nc2cccc(N3CCCC3=O)n2)sc1-c1cc2c(c(S(C)(=O)=O)c1)C(=O)N([C@@H](C)C1CC1)C2` [AZD8154]: in series [1], the BAL eosinophils result is recorded as “statistically significant decrease” and the BAL neutrophils entry is recorded as “statistically significant decrease”. In series [2], the “JAK/STAT pathway (pSTAT3, pSTAT5a,b) in lung tissue” value was “minimal impact” and the “NF-κB pathway (NF-κB p65) in lung nuclear extract” value was “minimal impact”. In series [3] (i.t. 0.02, 0.1, 0.3 mg/kg, 2 & 24 hrs post-challenge), the “Mean concentration in lung tissue and plasma versus dose” value was “increased with increasing dose”. In addition, in series [3] (i.t., up to 24 hrs post-dosing), the “level in lung tissue compared to plasma” value is “significantly higher in the lung tissue”. On rat PI3Kγ (CD11b expression on neutrophils, read-out: rat γ total IC50), the half-maximal inhibitory concentration (IC50) came out at 28.7 ± 4.1 nM. Moreover, at rat PI3Kγ (corrected for protein binding in the assay, read-out: rat γ free IC50), the IC50 was 0.54 ± 0.08 nM. Moreover, the “LAR (Penh, AUC)” value in series [4] is recorded as “statistically significant dose-dependent decrease”.
